This assay has as its target T1, human CD39 (Homo sapiens, UniProt P49961).
T1 sequence (P49961 1-510): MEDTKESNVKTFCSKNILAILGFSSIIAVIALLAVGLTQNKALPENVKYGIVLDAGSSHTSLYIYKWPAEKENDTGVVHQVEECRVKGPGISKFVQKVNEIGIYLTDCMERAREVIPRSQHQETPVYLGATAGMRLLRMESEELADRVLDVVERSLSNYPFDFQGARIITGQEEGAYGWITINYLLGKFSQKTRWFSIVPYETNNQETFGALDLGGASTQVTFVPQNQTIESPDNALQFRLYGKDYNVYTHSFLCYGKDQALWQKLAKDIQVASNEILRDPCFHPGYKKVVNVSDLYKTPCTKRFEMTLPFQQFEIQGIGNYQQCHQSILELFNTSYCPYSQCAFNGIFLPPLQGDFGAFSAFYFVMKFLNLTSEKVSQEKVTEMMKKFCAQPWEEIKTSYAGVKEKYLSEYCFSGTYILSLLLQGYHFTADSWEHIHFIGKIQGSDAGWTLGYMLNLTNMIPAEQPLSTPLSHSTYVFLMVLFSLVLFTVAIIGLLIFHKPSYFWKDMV
Nature of the assay: Malachite green assay for CD39 (natural substrate ATP). Conditions: natural substrate ATP 50 µM, n = 3, read-out: Ki ± SEM (converted). Format: biochemical. Also on record: Human umbilical cord membrane preparations (250 ng) natively expressing high amounts of CD39; from tissue; host or cells: human umbilical cord membranes. As for the experimental part:
They were minced and homogenized with a polytron in 95 mM NaCl, 0.1 mM phenylmethylsulfonyl fluoride (PMSF), and 45 mM Tris solution, pH 7.6. […] The pellets were resuspended in 5 mM Tris buffer solution, pH 8.0 and 10% glycerol. All purification steps were performed at 4°C. The preparations were kept at −80°C.
The reaction buffer contained 10 mM HEPES, 2 mM CaCl2, 1 mM MgCl2, pH 7.4 in a final volume of 50 μl in transparent 96-well half area plates. For CD39 (NTPDase1), we made use of human umbilical cord membranes preparations which express high levels of the enzyme. For the other human NTPDase isoenzymes, we had to resort to recombinant expression. […] The amount of enzyme preparation was adjusted to ensure 10–20% of substrate conversion. […] The released (inorganic) phosphate was quantified after 20 min of gentle shaking at 25°C by measuring the absorption of the malachite green-phosphomolybdate complex at 600 nm using a BMG PheraStar FS plate reader (BMG Labtech GmbH, Ortenberg, Germany).
% Inhibition=(B−T)/B*100%
where B is the average corrected absorption of the positive control without inhibitor and T the corrected absorption in the presence of test compound.
Full concentration-inhibition curves were determined with inhibitor concentrations ranging from 0.1 to 300 µM in the presence of 2% DMSO. Three independent experiments were performed (n = 3) and curves were calculated by the GraphPad Prism 8 software. The Ki value was calculated using the Cheng-Prusoff equation for competitive inhibitors: […]

Consider one molecule from paper PMC7508162 (Frontiers in Pharmacology, 2020).

Usually Ki stands for the dissociation constant of the complex between target and ligand, obtained from inhibition or displacement.

As to `CCCCNc1nc2c(NC)ncnc2n1[C@@H]1O[C@H](COP(=O)(O)OP(=O)(O)C(Br)(Br)P(=O)(O)O)[C@@H](O)[C@H]1O` [Compound 33, (Dibromo((((((2R,3S,4R,5R)-5-(8-(butylamino)-6-(methylamino)-9H-purin-9-yl)-3,4-dihydroxy-tetrahydrofuran-2-yl)methoxy)(hydroxy)phosphoryl)oxy)-(hydroxy)phosphoryl)methyl)-phosphonic Acid], the Ki was 3.35 µM.
